Literature values, collected in US7485427B1, “Photocleavable bioreactive agents” (The Trustees of Boston University, priority 1994, dated 2009).

Biological target: avidin (Gallus gallus, UniProt P02701)
Conditions: binding between avidin and biotin

Sequence of avidin (P02701 25-152): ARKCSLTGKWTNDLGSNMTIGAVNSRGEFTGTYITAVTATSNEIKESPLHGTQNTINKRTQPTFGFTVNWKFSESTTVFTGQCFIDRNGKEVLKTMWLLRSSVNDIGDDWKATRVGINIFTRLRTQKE

SMILES: O=C(O)CCCC[C@@H]1SC[C@@H]2NC(=O)N[C@@H]21 [biotin]
- association constant (Ka): about 10^15 M^−1
